Data reported in US11717639B2, “Combinatorial therapeutic systems and methods” (Cognifisense, Inc., priority 2018, dated 2023).
“Also recorded” adds a separate entry of the source.

What was measured:
opioid binding sites = conditions: cited from earlier work
H1 receptors = H1 receptors (Homo sapiens, UniProt P35367); conditions: cited from earlier work
D2 receptors = D2 receptors (Homo sapiens, UniProt P14416); conditions: cited from earlier work
mACh receptors = conditions: cited from earlier work
D1 receptors = D1 receptors (Homo sapiens, UniProt P21728); conditions: cited from earlier work
[1] = test system: benzodiazepine binding sites; conditions: cited from earlier work
[2] = test system: pain associated with fibromyalgia; experiment: Combinatorial therapy of milnacipran and VRNT or virtual reality distraction therapy for fibromyalgia; type: in vivo, patient
Excerpt: In an exemplary embodiment, a combinatorial therapeutic system for treating fibromyalgia includes a serotonin-norepinephrine reuptake inhibitor (SNRI) and an artificial sensory experience. The SNRI can include milnacipran, specifically, and in some embodiments, the SNRI can include other SNRIs commonly prescribed to treat fibromyalgia (e.g., duloxetine). Similar to those combinatorial systems described above, the artificial sensory experience combined with the SNRI (preferably milnacipran) can include any of 2D/3D/4D artificial sensory experiences, holography, augmented reality, virtual reality, and/or mixed reality. In an exemplary embodiment, the artificial sensory experience is VRNT or virtual reality distraction therapy.
In some embodiments, the combinatorial treatment systems and methods for treating/mitigating pain associated with fibromyalgia can have similar results to those illustrated and described with respect to FIGS. 5A, 5B, 5C, 6A, and 6B.

α1 receptors = conditions: cited from earlier work
pain [3] = experiment: Combinatorial therapy of opioid analgesic and VRNT: patient's amount of pain over time (FIGS. 5A-5C); type: in vivo; conditions: opioid analgesic in combination with VRNT, potential patient responses
Excerpt: FIGS. 5A-5C illustrate exemplary graphs of potential effects of combinatorial therapeutic systems/methods employing tapentadol and VRNT on a patient's amount of pain over time; and
The synergistic effects of the disclosed combinatorial therapeutic systems/methods can be exemplified in a plurality of responses. For example, FIGS. 5A-5C illustrate a combinatorial therapy using tapentadol (as the opioid analgesic) and VRNT (as the artificial sensory experience) with different potential patient responses. As many, if not all, patients may experience the synergistic benefits afforded by the disclosed combinatorial therapeutic systems/methods as an average benefit, the individual-specific responses may be different.

[4] = relative to tramadol and morphine; cited from earlier work
pain [5] = conditions: reported; cited from earlier work

D2 receptors, sequence (P14416 whole entry): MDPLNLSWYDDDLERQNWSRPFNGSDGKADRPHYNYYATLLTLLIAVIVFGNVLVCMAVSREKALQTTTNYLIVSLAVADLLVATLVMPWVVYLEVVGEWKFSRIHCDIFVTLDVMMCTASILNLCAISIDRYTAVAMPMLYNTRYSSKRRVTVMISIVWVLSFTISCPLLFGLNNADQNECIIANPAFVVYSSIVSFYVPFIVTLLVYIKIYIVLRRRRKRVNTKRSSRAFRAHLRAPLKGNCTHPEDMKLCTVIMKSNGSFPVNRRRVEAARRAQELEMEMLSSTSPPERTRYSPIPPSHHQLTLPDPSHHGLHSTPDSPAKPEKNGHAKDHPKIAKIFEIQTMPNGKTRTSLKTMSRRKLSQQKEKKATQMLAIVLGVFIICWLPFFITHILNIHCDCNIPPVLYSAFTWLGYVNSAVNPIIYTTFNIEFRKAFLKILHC
H1 receptors, sequence (P35367 whole entry): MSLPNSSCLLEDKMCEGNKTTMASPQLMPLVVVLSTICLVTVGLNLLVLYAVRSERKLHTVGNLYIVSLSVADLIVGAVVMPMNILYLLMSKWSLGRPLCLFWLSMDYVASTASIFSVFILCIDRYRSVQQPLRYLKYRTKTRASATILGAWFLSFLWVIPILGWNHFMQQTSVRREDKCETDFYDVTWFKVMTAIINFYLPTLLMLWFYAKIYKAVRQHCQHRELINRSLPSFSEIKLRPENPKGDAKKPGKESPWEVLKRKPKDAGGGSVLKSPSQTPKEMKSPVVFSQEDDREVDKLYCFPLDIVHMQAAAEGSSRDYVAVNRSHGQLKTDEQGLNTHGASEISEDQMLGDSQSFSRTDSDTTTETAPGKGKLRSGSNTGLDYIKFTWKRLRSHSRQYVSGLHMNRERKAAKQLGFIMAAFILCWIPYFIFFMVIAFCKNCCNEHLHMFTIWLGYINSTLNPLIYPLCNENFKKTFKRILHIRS
D1 receptors, sequence (P21728 whole entry): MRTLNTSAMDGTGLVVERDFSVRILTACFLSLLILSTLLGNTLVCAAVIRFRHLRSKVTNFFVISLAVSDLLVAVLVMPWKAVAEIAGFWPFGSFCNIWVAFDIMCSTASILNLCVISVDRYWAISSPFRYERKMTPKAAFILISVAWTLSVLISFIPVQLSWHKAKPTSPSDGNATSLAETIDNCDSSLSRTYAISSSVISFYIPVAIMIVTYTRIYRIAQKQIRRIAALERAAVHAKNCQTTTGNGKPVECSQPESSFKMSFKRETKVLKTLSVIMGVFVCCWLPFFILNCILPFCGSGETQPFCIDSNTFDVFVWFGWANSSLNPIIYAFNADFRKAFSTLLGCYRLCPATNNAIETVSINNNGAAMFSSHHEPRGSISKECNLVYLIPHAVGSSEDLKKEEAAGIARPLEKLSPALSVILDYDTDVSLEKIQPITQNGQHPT

For `CCN(CC)C(=O)C1(c2ccccc2)CC1CN` (centres unmarked) [milnacipran], the “actions on opioid binding sites” value (opioid binding sites) is listed as “no significant actions”, the “actions on H1 receptors” value (H1 receptors) is listed as “no significant actions” and the “actions on D2 receptors” value (D2 receptors) is listed as “no significant actions”. The “actions on mACh receptors” value (mACh receptors) was “no significant actions”, the “actions on D1 receptors” value (D1 receptors) was “no significant actions” and the “actions on benzodiazepine binding sites” value [1] was “no significant actions”. For the same compound, the pain over time [2] was “decrease in pain over time” and the “actions on α1 receptors” value (α1 receptors) was “no significant actions”.

In the case of `CC[C@@H](c1cccc(O)c1)[C@@H](C)CN(C)C` [tapentadol], the “patient's amount of pain over time” value (pain [3]) is listed as “constant or linear decrease in pain over time; also recorded: cyclical decrease and increase in pain levels over time with an overall decreasing pain level; also recorded: step-wise reduction in pain levels”, the potency [4] is listed as “somewhere between tramadol, another synthetic opioid, and morphine” and the “pain reduction / efficacy versus placebo” value (pain [5]) is listed as “limited efficacy beyond placebo; also recorded: only marginal incremental pain reduction versus placebo”.
